Measurements: patent publication US4735953A, “Pharmaceutical preparation for learning stimulation and memory improvement” (priority 1986, dated 1988)

What was measured:
patients = assay: Clinical study on patients with memory disorders, compared to pyracetam; format: in vivo, human
Excerpt: The preparation according to the present invention was studied in clinics on 130 patients.
As regards diagnosis and sex the patients were distributed as follows:
skull-brain traumata with memory disturbance: 75 patients (52 men and 23 women)
Alzheimer's disease: 15 patients (3 men and 12 women)
Pick's disease: 5 patients (5 men)
Senile dementia: 15 patients (4 men and 11 women)
Vascular dementia (cerabral atero-sclerosis, hypertonic disease): 20 patients (7 men and 13 women)
In the group of patients with skull-brain trauma the patient's age varied from 17 to 60 years, in the other patients--from 52 to 75 years.
In addition to clinico-psychopathological methods of investigation, all the patients were subjected to neuropsychological studies during which specific tasks were offered them to solve. In doing so, the response was assessed against a 4-points scale: 3--maximally pronounced disorder, full or substantially full incapability to deal with the task set; 2--a medium degree of manifestation of the deficiency, solving the task with the experimentator's assistance; 1--minor errors, independent correction of mistakes; 0--lack of disturbances.
The treatment course duration is 30-60 days. In the case of an acute skull-brain trauma (65 patients) the treatment started 15-20 days after the moment of trauma and lasted for 20-30 days.
It is known that the function of memory has a complex brain organization and different zones of brains take part in its regulation. During the studies a multi-faceted assessment of the memory function was carried out; there were assessed: (1) mnestic component of the environmental orientation of a patient; (2) involuntary memory for current events; (3) intentional exo-experimental memory; (4) volume and soundness of audio-speaking memory; (5) volume and soundness of visual memory; (6) operative memory; (7) memory for knowledge acquired before the disease.

[1] = test system: learning ability of mice in a shuttle chamber; assay: Learning ability of mice in a shuttle chamber; format: in vivo, mouse
[2] = Allergenic activity tests
Description: Allergenic activity tests were also carried out for the preparation according to the present invention.

[3] = test system: rabbit's brain hemispheres; assay: Amplitude of induced potential in brain hemispheres (acoustic irritation); format: in vivo; settings: rabbits
Description: In the third series of experiments the effect of the preparation according to the present invention on the functional brain asymmetry was studied. The experiments were carried out on rabbits with electrodes implanted in the brain. The electrodes under nembutal narcosis (40 mg/kg) were implanted strictly symmetrically into the bearing zone of the temporal cortex of the right and left hemispheres on its lateral surface, whereas the indifferent electrode was secured to the nasal bones of a rabbit's skull. The acoustic irritation was applied through earphones. As the acoustic irritation a sound click caused by a square-shaped pulse from an electronic stimulator with a frequency of 0.1-0.2 Hz was used; the click intensity was adjusted within the range of from 5 to 80 Db. The amplification of the taken-off biopotentials was effected on an electroencephalograph; the induced potentials were obtained by means of an analyzer. 100 experiments on 20 animals were thus conducted; the interval between experiments on one animal was 7 days. The amplitude and form of the induced potential were determined. The asymmetry factor (Kas) was calculated by the formula: [formula] Ar --amplitude of the induced potential of the […] hemisphere, μV;
A1 --amplitude of the induced potential of the left hemisphere.
The test preparations were administered hypodermally in the form of 0.5-1.5% aqueous solutions 20 minutes before the beginning of the measurements.

[4] = mice, hypodermally 1 mg/kg, 1st day
[5] = mice, hypodermally 1 mg/kg, 12 day (retention)
[6] = mice, hypodermally 3 mg/kg, 1st day
[7] = mice, hypodermally 3 mg/kg, 12 day (retention)
[8] = mice, hypodermally 10 mg/kg, 1st day
[9] = mice, hypodermally 10 mg/kg, 12 day (retention)
[10] = mice, per os 0.3 mg/kg, 1st day
[11] = mice, per os 0.3 mg/kg, 12 day (retention)
[12] = mice, per os 1 mg/kg, 12 day (retention)
[13] = mice, per os 3 mg/kg, 12 day (retention)

Question: Which results are given for Cl.Nc1c2c(nc3c1CCC3)CCCC2.O [preparation of the invention, 9-amino-2,3,5,6,7,8-hexahydro-1H-cyclopenta(b)quinoline monohydrate hydrochloride]?
Answer: therapeutic effect (patients; Alzheimer's and Pick's diseases): An essential amelioration; recovery of psychic functions (patients; acute skull-brain trauma): faster and more complete recovery of psychic functions; therapeutic effect, memory (patients; consequences of a vascular injury of brains): an improvement of memory was noted along with a higher working capacity; effect on memory parameters (patients; environmental orientation, past knowledge, involuntary, voluntary exo-experimental and operative memory): more complete and faster recovering effect; effect on the functional symmetry of the brain and activity of the dominating hemisphere (patients; experimental and clinical studies): enhanced activity of the dominating hemisphere; character of recovery (in words) (patients; patients): constructive and environmental praxis recovered most efficiently along with reading ability and memory; recovery of visual versus audio memory (in words) (patients; patients): visual memory recovered faster than the audio memory; restoration of psychic functions as compared to pyracetam (patients; patients, 5 to 30 mg a day subcutaneous, 30-60 days): faster and more complete restoration of psychic functions; efficiency versus comparison preparations (in words) ([1]; mice): more efficient than pyracetam, 4-aminopyridine, physostigmine and calcium homopantothenate; retention of the acquired knowledge (in words) ([1]; mice, 1, 3 and 10 mg/kg, after 24 hours): improves retention of the acquired knowledge; learning process (in words) ([1]; mice, 1, 3 and 10 mg/kg, first day of teaching): facilitates the learning process; % of avoidance reactions, group I [1, 4]: 22%; % of avoidance reactions, group II [1, 4]: 40%; % of avoidance reactions, group III [1, 4]: 52%; % of avoidance reactions, group IV [1, 4]: 60%; % of avoidance reactions, group V [1, 4]: 70%; % of avoidance reactions, group VI [1, 4]: 74%; % of avoidance reactions, group I [1, 5]: 70%; % of avoidance reactions, group II [1, 5]: 88%; % of avoidance reactions, group III [1, 5]: 90%; % of avoidance reactions, group IV [1, 5]: 90%; % of avoidance reactions, group V [1, 5]: 91%; % of avoidance reactions, group VI [1, 5]: 90%; % of avoidance reactions, group I [1, 6]: 32%; % of avoidance reactions, group II [1, 6]: 43%; % of avoidance reactions, group III [1, 6]: 50%; % of avoidance reactions, group IV [1, 6]: 61%; % of avoidance reactions, group V [1, 6]: 67%; % of avoidance reactions, group VI [1, 6]: 65%; % of avoidance reactions, group I [1, 7]: 66%; % of avoidance reactions, group II [1, 7]: 90%; % of avoidance reactions, group III [1, 7]: 88%; % of avoidance reactions, group IV [1, 7]: 87%; % of avoidance reactions, group V [1, 7]: 86%; % of avoidance reactions, group VI [1, 7]: 86%; % of avoidance reactions, group I [1, 8]: 28%; % of avoidance reactions, group II [1, 8]: 20%; % of avoidance reactions, group III [1, 8]: 25%; % of avoidance reactions, group IV [1, 8]: 40%; % of avoidance reactions, group V [1, 8]: 44%; % of avoidance reactions, group VI [1, 8]: 46%; % of avoidance reactions, group I [1, 9]: 61%; % of avoidance reactions, group II [1, 9]: 75%; % of avoidance reactions, group III [1, 9]: 78%; % of avoidance reactions, group IV [1, 9]: 77%; % of avoidance reactions, group V [1, 9]: 76%; % of avoidance reactions, group VI [1, 9]: 81%; % of avoidance reactions, group I [1, 10]: 27%; % of avoidance reactions, group II [1, 10]: 38%; % of avoidance reactions, group III [1, 10]: 59%; % of avoidance reactions, group IV [1, 10]: 65%; % of avoidance reactions, group V [1, 10]: 68%; % of avoidance reactions, group VI [1, 10]: 72%; % of avoidance reactions, group I [1, 11]: 79%; % of avoidance reactions, group II [1, 11]: 84%; % of avoidance reactions, group III [1, 11]: 82%; % of avoidance reactions, group IV [1, 11]: 83%; % of avoidance reactions, group V [1, 11]: 80%; % of avoidance reactions, group VI [1, 11]: 82%; % of avoidance reactions, group I ([1]; mice, per os 1 mg/kg, 1st day): 27%; % of avoidance reactions, group II ([1]; mice, per os 1 mg/kg, 1st day): 43%; % of avoidance reactions, group III ([1]; mice, per os 1 mg/kg, 1st day): 70%; % of avoidance reactions, group IV ([1]; mice, per os 1 mg/kg, 1st day): 80%; % of avoidance reactions, group V ([1]; mice, per os 1 mg/kg, 1st day): 80%; % of avoidance reactions, group VI ([1]; mice, per os 1 mg/kg, 1st day): 82%; % of avoidance reactions, group I [1, 12]: 80%; % of avoidance reactions, group II [1, 12]: 90%; % of avoidance reactions, group III [1, 12]: 88%; % of avoidance reactions, group IV [1, 12]: 87%; % of avoidance reactions, group V [1, 12]: 86%; % of avoidance reactions, group VI [1, 12]: 90%; % of avoidance reactions, group I ([1]; mice, per os 3 mg/kg, 1st day): 18%; % of avoidance reactions, group II ([1]; mice, per os 3 mg/kg, 1st day): 27%; % of avoidance reactions, group III ([1]; mice, per os 3 mg/kg, 1st day): 35%; % of avoidance reactions, group IV ([1]; mice, per os 3 mg/kg, 1st day): 44%; % of avoidance reactions, group V ([1]; mice, per os 3 mg/kg, 1st day): 51%; % of avoidance reactions, group VI ([1]; mice, per os 3 mg/kg, 1st day): 50%; % of avoidance reactions, group I [1, 13]: 51%; % of avoidance reactions, group II [1, 13]: 76%; % of avoidance reactions, group III [1, 13]: 75%; % of avoidance reactions, group IV [1, 13]: 77%; % of avoidance reactions, group V [1, 13]: 79%; % of avoidance reactions, group VI [1, 13]: 80%; memory stimulation, per os as compared to subcutaneous administration ([1]; mice, per os vs subcutaneous): the same or even better results of memory stimulation; allergenic effect [2]: no allergenic effect; amplitude of induced potentials (in words) [3]: increased greater in the left hemisphere; Change of amplitude of induced potential, % of the control, left hemisphere ([3]; hypodermally 5 mg/kg): 270%; Change of amplitude of induced potential, % of the control, right hemisphere ([3]; hypodermally 5 mg/kg): 200%; Mean value of amplitude of induced potential, % ([3]; hypodermally 5 mg/kg): 235%
